Measured values as given in ChEMBL document CHEMBL3734738, “A structure-activity relationship of non-peptide macrocyclic histone deacetylase inhibitors and their anti-proliferative and anti-inflammatory activities” (Bioorg Med Chem, 2015).

Columns and labels:
Histone deacetylase 1 = Histone deacetylase 1 (Homo sapiens, UniProt Q13547); assay: Inhibition of recombinant HDAC1 (unknown origin) expressed in Escherichia coli BL21(DE3) after 60 mins using trichostatin A by label-free mass spectrometry-based SAMDI assay
Histone deacetylase 8 = molecular target: T1, Histone deacetylase 8 (Homo sapiens, UniProt Q9BY41); assay: Inhibition of recombinant HDAC8 (unknown origin) expressed in Escherichia coli BL21(DE3) after 60 mins using trichostatin A by label-free mass spectrometry-based SAMDI assay
T1 sequence (Q9BY41 whole entry): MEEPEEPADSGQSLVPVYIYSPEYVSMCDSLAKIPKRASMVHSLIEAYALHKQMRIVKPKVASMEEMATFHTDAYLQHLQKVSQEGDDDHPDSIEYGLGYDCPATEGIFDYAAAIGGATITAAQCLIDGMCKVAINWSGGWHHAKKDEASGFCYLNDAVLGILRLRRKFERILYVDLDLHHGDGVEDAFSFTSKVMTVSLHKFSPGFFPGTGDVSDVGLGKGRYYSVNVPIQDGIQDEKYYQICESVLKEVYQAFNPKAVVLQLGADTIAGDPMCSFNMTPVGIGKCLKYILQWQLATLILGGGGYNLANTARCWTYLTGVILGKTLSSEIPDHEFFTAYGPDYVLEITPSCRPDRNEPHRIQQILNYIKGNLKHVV

[1] = molecular target: T2, Protein deacetylase HDAC6 (Homo sapiens, UniProt Q9UBN7); assay: Inhibition of recombinant HDAC6 (unknown origin) expressed in Escherichia coli BL21(DE3) after 60 mins using trichostatin A by label-free mass spectrometry-based SAMDI assay
T2 sequence (Q9UBN7 whole entry): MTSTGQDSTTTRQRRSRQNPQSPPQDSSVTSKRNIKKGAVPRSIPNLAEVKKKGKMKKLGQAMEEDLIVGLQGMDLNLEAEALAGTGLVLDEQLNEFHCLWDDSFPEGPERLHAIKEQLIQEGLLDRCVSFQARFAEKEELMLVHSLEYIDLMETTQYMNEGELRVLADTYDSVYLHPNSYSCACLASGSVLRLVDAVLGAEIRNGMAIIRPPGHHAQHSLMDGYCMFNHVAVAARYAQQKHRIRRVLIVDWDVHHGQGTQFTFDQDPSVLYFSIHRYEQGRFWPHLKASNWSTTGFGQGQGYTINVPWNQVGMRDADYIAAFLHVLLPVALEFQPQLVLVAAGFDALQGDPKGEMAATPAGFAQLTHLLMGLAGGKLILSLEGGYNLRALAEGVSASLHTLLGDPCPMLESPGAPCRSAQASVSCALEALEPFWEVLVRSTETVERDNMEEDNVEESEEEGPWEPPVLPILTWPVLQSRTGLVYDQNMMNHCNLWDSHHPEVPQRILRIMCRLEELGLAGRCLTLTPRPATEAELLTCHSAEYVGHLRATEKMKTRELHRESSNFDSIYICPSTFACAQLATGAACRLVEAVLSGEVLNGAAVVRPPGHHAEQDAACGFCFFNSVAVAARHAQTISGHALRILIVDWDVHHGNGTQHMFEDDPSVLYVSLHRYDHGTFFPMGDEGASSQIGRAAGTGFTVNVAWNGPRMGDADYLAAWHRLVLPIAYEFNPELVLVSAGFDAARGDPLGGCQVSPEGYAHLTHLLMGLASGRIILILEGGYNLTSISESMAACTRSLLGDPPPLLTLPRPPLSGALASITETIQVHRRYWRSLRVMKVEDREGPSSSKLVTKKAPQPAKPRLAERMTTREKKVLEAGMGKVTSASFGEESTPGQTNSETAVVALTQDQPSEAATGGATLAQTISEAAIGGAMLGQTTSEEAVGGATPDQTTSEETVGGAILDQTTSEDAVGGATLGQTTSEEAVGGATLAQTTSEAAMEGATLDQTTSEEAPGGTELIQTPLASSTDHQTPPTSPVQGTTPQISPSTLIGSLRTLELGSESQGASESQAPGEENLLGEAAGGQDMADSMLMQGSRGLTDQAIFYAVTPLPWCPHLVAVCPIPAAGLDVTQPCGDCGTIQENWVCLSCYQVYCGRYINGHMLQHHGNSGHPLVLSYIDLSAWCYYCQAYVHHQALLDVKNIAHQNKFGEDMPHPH

Chain of Histone deacetylase 1 (Q13547 whole entry): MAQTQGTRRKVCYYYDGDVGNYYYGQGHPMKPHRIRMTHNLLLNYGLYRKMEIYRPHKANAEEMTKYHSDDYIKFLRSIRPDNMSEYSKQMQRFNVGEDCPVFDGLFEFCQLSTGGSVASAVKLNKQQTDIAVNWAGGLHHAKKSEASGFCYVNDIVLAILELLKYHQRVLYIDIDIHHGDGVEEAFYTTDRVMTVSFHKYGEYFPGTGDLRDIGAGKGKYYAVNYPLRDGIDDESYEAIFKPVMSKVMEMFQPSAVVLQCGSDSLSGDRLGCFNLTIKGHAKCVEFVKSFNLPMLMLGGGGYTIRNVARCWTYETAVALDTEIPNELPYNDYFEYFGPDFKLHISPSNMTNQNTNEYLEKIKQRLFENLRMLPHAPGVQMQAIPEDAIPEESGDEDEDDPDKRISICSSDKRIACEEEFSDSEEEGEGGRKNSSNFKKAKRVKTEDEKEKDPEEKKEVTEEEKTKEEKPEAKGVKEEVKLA

Row | SMILES | IC50 (Histone deacetylase 1) | IC50 (Histone deacetylase 8) | IC50 [1]
1 | CC[C@@H]1OC(=O)[C@@H](C)[C@H](O[C@H]2C[C@@](C)(OC)[C@](O)(CN(C)Cc3ccc(-c4cn(CC(=O)NO)nn4)cc3)[C@H](C)O2)[C@H](C)[C@H](O[C@@H]2O[C@H](C)C[C@H](N(C)C)[C@H]2O)[C@@](C)(OC)C[C@H](C)C(=O)[C@@H](C)[C@@H](O)[C@@]1(C)O | > 10 µM | 7.12 µM | 5.35 µM
2 | CC[C@@H]1OC(=O)[C@@H](C)[C@H](O[C@H]2C[C@@](C)(OC)[C@](O)(CN(C)Cc3ccc(-c4cn(CCCCC(=O)NO)nn4)cc3)[C@H](C)O2)[C@H](C)[C@H](O[C@@H]2O[C@H](C)C[C@H](N(C)C)[C@H]2O)[C@@](C)(OC)C[C@H](C)C(=O)[C@@H](C)[C@@H](O)[C@@]1(C)O | 3.69 µM | 1.82 µM | 0.269 µM
3 | CC[C@H]1OC(=O)[C@@H](C)[C@H](O[C@H]2C[C@@](C)(OC)[C@@H](O)[C@H](C)O2)[C@H](C)[C@H](O[C@H]2O[C@@H](C)C[C@@H](N(C)Cc3ccc(-c4cn(CCCCCC(=O)NO)nn4)cc3)[C@@H]2O)[C@@](C)(O)C[C@H](C)CN(C)[C@@H](C)[C@H](O)[C@@]1(C)O (stereo in doubt) | 0.316 µM | 0.604 µM | 0.0143 µM
4 | CC[C@H]1OC(=O)[C@@H](C)[C@H](O[C@H]2C[C@@](C)(OC)[C@](O)(CN(C)Cc3ccc(-c4cn(CCCCC(=O)NO)nn4)cc3)[C@H](C)O2)[C@H](C)[C@H](O[C@H]2O[C@@H](C)C[C@@H](N(C)C)[C@@H]2O)[C@@](C)(O)C[C@H](C)CN(C)[C@@H](C)[C@H](O)[C@@]1(C)O | 0.531 µM | 0.709 µM | 0.0953 µM
5 | CC[C@H]1OC(=O)[C@@H](C)[C@H](O[C@H]2C[C@@](C)(OC)[C@@H](O)[C@H](C)O2)[C@H](C)[C@H](O[C@H]2O[C@@H](C)C[C@@H](N(C)Cc3ccc(-c4cn(CCC(=O)NO)nn4)cc3)[C@@H]2O)[C@@](C)(O)C[C@H](C)CN(C)[C@@H](C)[C@H](O)[C@@]1(C)O | > 10 µM | > 10 µM | 2.17 µM
6 | CC[C@H]1OC(=O)[C@H](C)C(=O)[C@H](C)[C@@H](O[C@@H]2O[C@H](C)C[C@H](N(C)Cc3ccc(-c4cn(CCC(=O)NO)nn4)cc3)[C@H]2O)[C@@](C)(OC)C[C@@H](C)C2=NCCN3C(=O)O[C@@]1(C)[C@H]3[C@H]2C | > 10 µM | > 10 µM | 1.73 µM
7 | CC[C@H]1OC(=O)[C@@H](C)[C@H](O[C@@H]2C[C@](C)(OC)[C@@](O)(CN(C)Cc3ccc(-c4cn(CC(=O)NO)nn4)cc3)[C@@H](C)O2)[C@H](C)[C@H](O[C@H]2O[C@@H](C)C[C@@H](N(C)C)[C@@H]2O)[C@@](C)(O)C[C@H](C)CN(C)[C@@H](C)[C@H](O)[C@@]1(C)O | > 10 µM | 4.51 µM | > 10 µM
8 | CC[C@@H]1OC(=O)[C@@H](C)[C@H](O[C@H]2C[C@@](C)(OC)[C@@H](O)[C@H](C)O2)[C@H](C)[C@H](O[C@@H]2O[C@H](C)C[C@H](N(C)Cc3ccc(-c4cn(CCCCC(=O)NO)nn4)cc3)[C@H]2O)[C@@](C)(OC)C[C@H](C)C(=O)[C@@H](C)[C@@H](O)[C@@]1(C)O | 4.87 µM | 0.877 µM | 0.12 µM
9 | CC[C@H]1OC(=O)[C@@H](C)[C@H](O[C@H]2C[C@@](C)(OC)[C@@H](O)[C@H](C)O2)[C@H](C)[C@H](O[C@H]2O[C@@H](C)C[C@@H](N(C)Cc3ccc(-c4cn(CC(=O)NO)nn4)cc3)[C@@H]2O)[C@@](C)(O)C[C@H](C)CN(C)[C@@H](C)[C@H](O)[C@@]1(C)O | > 10 µM | > 10 µM | 5.66 µM
10 | CC[C@@H]1OC(=O)[C@H](C)[C@@H](O[C@H]2C[C@@](C)(OC)[C@](O)(CN(C)Cc3ccc(-c4cn(CCC(=O)NO)nn4)cc3)[C@H](C)O2)[C@@H](C)[C@@H](O[C@@H]2O[C@H](C)C[C@H](N(C)C)[C@H]2O)[C@](C)(O)C[C@@H](C)CN(C)[C@H](C)[C@@H](O)[C@]1(C)O | > 10 µM | 2.23 µM | 2.03 µM
11 | CC[C@H]1OC(=O)[C@H](C)[C@@H](O[C@@H]2C[C@](C)(OC)[C@H](O)[C@@H](C)O2)[C@H](C)[C@@H](O[C@@H]2O[C@H](C)C[C@H](N(C)C)[C@H]2O)[C@@](C)(O)C[C@@H](C)CN(Cc2ccc(-c3cn(CCCCCC(=O)NO)nn3)cc2)[C@@H](C)[C@@H](O)[C@]1(C)O | 0.145 µM | 2.37 µM | 0.0103 µM
12 | CC[C@H]1OC(=O)[C@H](C)C(=O)[C@H](C)[C@@H](O[C@@H]2O[C@H](C)C[C@H](N(C)Cc3ccc(-c4cn(CC(=O)NO)nn4)cc3)[C@H]2O)[C@@](C)(OC)C[C@@H](C)C2=NCCN3C(=O)O[C@@]1(C)[C@H]3[C@H]2C | > 10 µM | 2.85 µM | > 10 µM
13 | CC[C@@H]1OC(=O)[C@H](C)[C@@H](O[C@@H]2C[C@](C)(OC)[C@H](O)[C@@H](C)O2)[C@@H](C)[C@@H](O[C@@H]2O[C@H](C)C[C@H](N(C)Cc3ccccc3-c3cn(CCCCCC(=O)NO)nn3)[C@H]2O)[C@](C)(O)C[C@@H](C)CN(C)[C@H](C)[C@@H](O)[C@]1(C)O | 0.613 µM | 4.3 µM | 0.178 µM
14 | CC[C@@H]1OC(=O)[C@@H](C)[C@H](O[C@H]2C[C@@](C)(OC)[C@](O)(CN(C)Cc3ccc(-c4cn(CCC(=O)NO)nn4)cc3)[C@H](C)O2)[C@H](C)[C@H](O[C@@H]2O[C@H](C)C[C@H](N(C)C)[C@H]2O)[C@@](C)(OC)C[C@H](C)C(=O)[C@@H](C)[C@@H](O)[C@@]1(C)O | > 10 µM | 10.2 µM | 3.56 µM
15 | CC[C@H]1OC(=O)[C@H](C)[C@@H](O[C@@H]2C[C@](C)(OC)[C@H](O)[C@@H](C)O2)[C@H](C)[C@@H](O[C@@H]2O[C@H](C)C[C@H](N(C)C)[C@H]2O)[C@@](C)(O)C[C@@H](C)CN(Cc2ccc(-c3cn(CC(=O)NO)nn3)cc2)[C@@H](C)[C@@H](O)[C@]1(C)O | > 10 µM | > 10 µM | > 10 µM
16 | CC[C@H]1OC(=O)[C@H](C)[C@@H](O[C@@H]2C[C@](C)(OC)[C@H](O)[C@@H](C)O2)[C@H](C)[C@@H](O[C@@H]2O[C@H](C)C[C@H](N(C)C)[C@H]2O)[C@@](C)(O)C[C@@H](C)CN(Cc2ccc(-c3cn(CCCC(=O)NO)nn3)cc2)[C@@H](C)[C@@H](O)[C@]1(C)O | > 10 µM | 2.77 µM | 0.62 µM
17 | CC[C@@H]1OC(=O)[C@H](C)[C@@H](O[C@@H]2C[C@](C)(OC)[C@H](O)[C@@H](C)O2)[C@@H](C)[C@@H](O[C@@H]2O[C@H](C)C[C@H](N(C)Cc3cccc(-c4cn(CCCCCC(=O)NO)nn4)c3)[C@H]2O)[C@](C)(O)C[C@@H](C)CN(C)[C@H](C)[C@@H](O)[C@]1(C)O | 0.109 µM | 0.604 µM | 0.0438 µM
18 | CC[C@H]1OC(=O)[C@H](C)[C@@H](O[C@@H]2C[C@](C)(OC)[C@H](O)[C@@H](C)O2)[C@H](C)[C@@H](O[C@@H]2O[C@H](C)C[C@H](N(C)C)[C@H]2O)[C@@](C)(O)C[C@@H](C)CN(Cc2ccc(-c3cn(CCC(=O)NO)nn3)cc2)[C@@H](C)[C@@H](O)[C@]1(C)O | > 10 µM | > 10 µM | 1.23 µM
19 | CC[C@@H]1OC(=O)[C@@H](C)[C@H](O[C@H]2C[C@@](C)(OC)[C@@H](O)[C@H](C)O2)[C@H](C)[C@H](O[C@@H]2O[C@H](C)C[C@H](N(C)Cc3ccc(-c4cn(CCC(=O)NO)nn4)cc3)[C@H]2O)[C@@](C)(OC)C[C@H](C)C(=O)[C@@H](C)[C@@H](O)[C@@]1(C)O | > 10 µM | 2.45 µM | 0.919 µM
